Measurements taken from PMC6509186, “Nontypeable Haemophilus influenzae Has Evolved Preferential Use of N-Acetylneuraminic Acid as a Host Adaptation” (mBio, 2019).
Where two headings read alike, the source gives them in different places.

Target: T1, CMP-Neu5Ac synthetase (SiaB) (Haemophilus influenzae, UniProt Q57140)
T1 construct: gene neuA; full-length siaB in pET51-Ek/LIC, N-terminal 6xHis tag (so in the source) kept; expressed in E. coli, Talon purified; 24,800 Da; amine-coupled to CM5 chip
Assay: surface plasmon resonance, immobilised SiaB
Type: binding

[1] = 20 mM MgCl2, 0.2 M MOPS, pH 8.1, 37°C, enzyme amine-coupled to CM5 chip

Structure (SMILES) | Kd [1] [nM] | Kd [nM]
O=C(CO)N[C@H]1[C@H]([C@H](O)[C@H](O)CO)OC(O)(C(=O)O)C[C@@H]1O (stereo partly drawn) [Neu5Gc] | 1000 | 
CC(=O)N[C@H]1[C@H]([C@H](O)[C@H](O)CO)OC(O)(C(=O)O)C[C@@H]1O (stereo partly drawn) [Neu5Ac] | 1.2 | 
Nc1ccn([C@@H]2O[C@H](COP(=O)(O)OP(=O)(O)OP(=O)(O)O)[C@@H](O)[C@H]2O)c(=O)n1 [CTP] |  | > 200000
